Assay results taken from patent publication US10166218B2, “3-(1H-indol-2-yl)-1H-pyrazolo[3,4-C]pyridines and therapeutic uses thereof” (Samumed, LLC, priority 2015, dated 2019).

Tests used:
[1] = test system: primary human fibroblasts derived from IPF patients (LL29 cells) treated with TGF-β1; α-smooth muscle actin (αSMA); test: Inhibition of the fibrotic process: αSMA staining in TGF-β1 treated primary human fibroblasts from IPF patients (LL29 cells); assay type: cell-based; conditions: Fibroblast, 96 h, TGF-β1 20 ng/mL, 4 days; for EC50: % cells positive for αSMA
Method in brief: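 Potency reflects suppression of TGF-β1-driven αSMA expression in IPF patient fibroblasts over 4 days. Values are EC50s from normalized αSMA-positive cell counts, with % inhibition at 10 μM when EC50 exceeded 10 μM.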

[2] = test system: primary human mesenchymal stem cells (hMSCs); test: Induction of chondrogenesis in primary human mesenchymal stem cells (chondrogenic nodules); assay type: cell-based; conditions: 144 h, 6 days; for EC50: concentration required to induce 50% levels of chondrogenesis of TGF-β3 positive control, read-out: Conc (nM) of 50% TGF-β3 activity; for Emax: nodules, relative to TGF-β3 (10 ng/mL) positive control, read-out: Max. Activity as % TGF-β3 activity
Method: Representative compounds were screened using primary human mesenchymal stem cells (hMSCs) to determine their ability to induce chondrogenesis (process by which cartilage is developed).
Primary human mesenchymal stem cells (hMSCs) were purchased from Lonza (Walkersville, Md.) and expanded in Mesenchymal Stem Cell Growth Media (Lonza). Cells between passage 3 and 6 were used for the experiments.
Each compound was dissolved in DMSO as a 10 mM stock and used to prepare compound source plates. Serial dilution (1:3, 6-point dose-response curves from 2700 nM to 10 nM) and compound transfer was performed using the ECHO 550 (Labcyte, Sunnyvale, Calif.) into 96-well clear bottom assay plates (Greiner Bio-One) with appropriate DMSO backfill for a final DMSO concentration of 0.03%. hMSCs were plated at 20,000 cells/well in 250 μL/well Incomplete Chondrogenic Induction Medium (Lonza; DMEM, dexamethasone, ascorbate, insulin-transferrin-selenium [ITS supplement], gentamycin-amphotericin [GA-1000], sodium pyruvate, proline and L-glutamine). TGF-β3 (10 ng/mL) was used as a positive control for differentiation while negative control wells were treated with 75 nL DMSO for normalization and calculating EC50 values. Cells were incubated at 37° C. and 5% CO2 for 6 days. To image chondrogenic nodules, the cells were fixed using 4% formaldehyde (Electron Microscopy Sciences), and stained with 2 μg/mL Rhodamine B (Sigma-Aldrich) and 20 μM Nile Red (Sigma-Aldrich) [Johnson K., et. al, A Stem Cell-Based Approach to Cartilage Repair, Science, (2012), 336(6082), 717-721]. The nodules imaged (4 images per well at 4× magnification) by excitation at 531 nm and emission at 625 nm and quantified using the CellInsight CX5 (Thermo Scientific). Number of nodules in each well was normalized to the average of 3 DMSO treated wells on the same plate using Excel (Microsoft Inc.). The normalized averages (fold change over DMSO) of 3 replicate wells for each compound concentration were calculated. Due to solubility limitations of some of the compounds, curve fitting was incomplete leading to inaccurate EC50 determinations.
Using TGF-β3 as a positive control, the concentration of representative compounds required to induce 50% levels of chondrogenesis is reported. In addition, the maximum activity of each compound and the respective dose that each compound reached maximum chondrogenesis activity is reported.

EC50 [2] [nM]	SMILES	EC50 [1] [µM]	Emax [2] [%]	inhibition at 10 µM ([1]; αSMA, 10 μM, read-out: percent inhibition at 10 μM (given for EC50 of >10 μM)) [%]
900	CCNCc1cncc(-c2cc3c(-c4cc5c(-c6ccc(F)cc6)cccc5[nH]4)n[nH]c3cn2)c1 [Compound 34, N-((5-(3-(4-(4-Fluorophenyl)-1H-indol-2-yl)-1H-pyrazolo[3,4-c]pyridin-5-yl)pyridin-3-yl)methyl)ethanamine]	0.029	268	
300	Fc1ccc(-c2cccc3[nH]c(-c4n[nH]c5cnc(-c6cncc(CN7CCCC7)c6)cc45)cc23)cc1 [Compound 42, 3-(4-(4-Fluorophenyl)-1H-indol-2-yl)-5-(5-(pyrrolidin-1-ylmethyl)pyridin-3-yl)-1H-pyrazolo[3,4-c]pyridine]	0.078	164	
30	Nc1cncc(-c2cc3c(-c4cc5c(-c6ccccc6F)cccc5[nH]4)n[nH]c3cn2)c1 [Compound 59, 5-(3-(4-(2-Fluorophenyl)-1H-indol-2-yl)-1H-pyrazolo[3,4-c]pyridin-5-yl) pyridin-3-amine]	0.144	94	
	Fc1ccccc1-c1cccc2[nH]c(-c3n[nH]c4cnc(-c5cncc(CN6CCCCC6)c5)cc34)cc12 [Compound 71, 3-(4-(2-Fluorophenyl)-1H-indol-2-yl)-5-(5-(piperidin-1-ylmethyl)pyridin-3-yl)-1H-pyrazolo[3,4-c]pyridine]	0.157	18	
	CCC(=O)Nc1cncc(-c2cc3c(-c4cc5c(-c6cccnc6)cccc5[nH]4)n[nH]c3cn2)c1 [Compound 85, N-(5-(3-(4-(Pyridin-3-yl)-1H-indol-2-yl)-1H-pyrazolo[3,4-c]pyridin-5-yl)pyridin-3-yl)propionamide]	0.553	101	
30	c1cncc(-c2cc3c(-c4cc5c(-c6cccnc6)cccc5[nH]4)n[nH]c3cn2)c1 [Compound 88, 5-(Pyridin-3-yl)-3-(4-(pyridin-3-yl)-1H-indol-2-yl)-1H-pyrazolo[3,4-c]pyridine]	0.305	141	
10	CC(C)C(=O)Nc1cncc(-c2cc3c(-c4cc5c(-c6cccnc6)cccc5[nH]4)n[nH]c3cn2)c1 [Compound 93, N-(5-(3-(4-(Pyridin-3-yl)-1H-indol-2-yl)-1H-pyrazolo[3,4-c]pyridin-5-yl)pyridin-3-yl)isobutyramide]	0.298	201	
100	O=C(Nc1cncc(-c2cc3c(-c4cc5c(-c6cccnc6)cccc5[nH]4)n[nH]c3cn2)c1)c1ccccc1 [Compound 95, N-(5-(3-(4-(Pyridin-3-yl)-1H-indol-2-yl)-1H-pyrazolo[3,4-c]pyridin-5-yl)pyridin-3-yl)benzamide]	0.166	236	
	c1cncc(-c2cccc3[nH]c(-c4n[nH]c5cnc(-c6cncc(CN7CCCC7)c6)cc45)cc23)c1 [Compound 98, 3-(4-(Pyridin-3-yl)-1H-indol-2-yl)-5-(5-(pyrrolidin-1-ylmethyl)pyridin-3-yl)-1H-pyrazolo[3,4-c]pyridine]	1.61	22	
100	O=C(Nc1cncc(-c2cc3c(-c4cc5c(-c6cccnc6)cccc5[nH]4)n[nH]c3cn2)c1)C1CC1 [Compound 104, N-(5-(3-(4-(Pyridin-3-yl)-1H-indol-2-yl)-1H-pyrazolo[3,4-c]pyridin-5-yl)pyridin-3-yl)cyclopropanecarboxamide]	0.189	308	
300	Nc1cncc(-c2cc3c(-c4cc5c(-c6ccccn6)cccc5[nH]4)n[nH]c3cn2)c1 [Compound 143, 5-(3-(4-(Pyridin-2-yl)-1H-indol-2-yl)-1H-pyrazolo[3,4-c]pyridin-5-yl) pyridin-3-amine]	0.098	118	
30	Cc1ccncc1-c1cc2c(-c3cc4c(-c5ccccn5)cccc4[nH]3)n[nH]c2cn1 [Compound 145, 5-(4-Methylpyridin-3-yl)-3-(4-(pyridin-2-yl)-1H-indol-2-yl)-1H-pyrazolo [3,4-c]pyridine]	0.223	90	
30	CN(C)Cc1cncc(-c2cc3c(-c4cc5c(-c6ccccn6)cccc5[nH]4)n[nH]c3cn2)c1 [Compound 153, N,N-Dimethyl-1-(5-(3-(4-(pyridin-2-yl)-1H-indol-2-yl)-1H-pyrazolo[3,4-c]pyridin-5-yl)pyridin-3-yl)methanamine]	0.461	75	
900	CCCCC(=O)Nc1cncc(-c2cc3c(-c4cc5c(-c6ccccn6)cccc5[nH]4)n[nH]c3cn2)c1 [Compound 159, N-(5-(3-(4-(Pyridin-2-yl)-1H-indol-2-yl)-1H-pyrazolo[3,4-c]pyridin-5-yl)pyridin-3-yl)pentanamide]	0.269	84	
	CC(C)C(=O)Nc1cncc(-c2cc3c(-c4cc5c(N6CCN(C)CC6)cccc5[nH]4)n[nH]c3cn2)c1 [Compound 233]	> 10	36	74.5
	O=C(Nc1cncc(-c2cc3c(-c4cc5ccccc5[nH]4)n[nH]c3cn2)c1)c1ccccc1 [Compound 263, N-(5-(3-(1H-Indol-2-yl)-1H-pyrazolo[3,4-c]pyridin-5-yl)pyridin-3-yl) benzamide]	0.065	122	
	c1ccc2[nH]c(-c3n[nH]c4cnc(-c5cncc(CN6CCCC6)c5)cc34)cc2c1 [Compound 266, 3-(1H-Indol-2-yl)-5-(5-(pyrrolidin-1-ylmethyl)pyridin-3-yl)-1H-pyrazolo [3,4-c]pyridine]	0.143	138	
	c1cc(-c2ccoc2)c2cc(-c3n[nH]c4cnc(-c5cncc(CN6CCCCC6)c5)cc34)[nH]c2c1 [Compound 323, 3-(4-(Furan-3-yl)-1H-indol-2-yl)-5-(5-(piperidin-1-ylmethyl)pyridin-3-yl)-1H-pyrazolo[3,4-c]pyridine]	0.261	85	
100	CN(C)CCNc1cc(F)cc(-c2cccc3[nH]c(-c4n[nH]c5cnc(-c6cncc(N)c6)cc45)cc23)c1 [Compound 451, N^1-(3-(2-(5-(5-Aminopyridin-3-yl)-1H-pyrazolo[3,4-c]pyridin-3-yl)-1H-indol-4-yl)-5-fluorophenyl)-N^2,N^2-dimethylethane-1,2-diamine]	0.046	180	
30	CCNCc1cncc(-c2cc3c(-c4cc5c(-c6cc(F)cc(NCCN(C)C)c6)cccc5[nH]4)n[nH]c3cn2)c1 [Compound 454, N^1-(3-(2-(5-(5-((Ethylamino)methyl)pyridin-3-yl)-1H-pyrazolo[3,4-c]pyridin-3-yl)-1H-indol-4-yl)-5-fluorophenyl)-N^2,N^2-dimethylethane-1,2-diamine]	0.583	294	
10	CN(C)CCNc1cc(F)cc(-c2cccc3[nH]c(-c4n[nH]c5cnc(-c6cncc(NC(=O)C(C)(C)C)c6)cc45)cc23)c1 [Compound 456, N-(5-(3-(4-(3-((2-(Dimethylamino)ethyl)amino)-5-fluorophenyl)-1H-indol-2-yl)-1H-pyrazolo[3,4-c]pyridin-5-yl)pyridin-3-yl)pivalamide]	0.444	87	
	CN(C)CCNc1cc(F)cc(-c2cccc3[nH]c(-c4n[nH]c5cnc(-c6cncc(CN(C)C)c6)cc45)cc23)c1 [Compound 461, N^1-(3-(2-(5-(5-((Dimethylamino)methyl)pyridin-3-yl)-1H-pyrazolo[3,4-c]pyridin-3-yl)-1H-indol-4-yl)-5-fluorophenyl)-N^2,N^2-dimethylethane-1,2-diamine]	1.18	52	
10	CN(C)CCNc1cc(F)cc(-c2cccc3[nH]c(-c4n[nH]c5cnc(-c6ccccn6)cc45)cc23)c1 [Compound 476, N^1-(3-Fluoro-5-(2-(5-(pyridin-2-yl)-1H-pyrazolo[3,4-c]pyridin-3-yl)-1H-indol-4-yl)phenyl)-N^2,N^2-dimethylethane-1,2-diamine]	0.582	89	
